Results published in patent publication US10363239B2, “Method for inhibiting growth of cancer cells” (Pain Therapeutics, Inc., priority 2013, dated 2019).
Like-named read-outs stand apart in the source and are kept apart here.

Legend:
[1] = molecular target: FLNA pentapeptide of SEQ ID NO: 1 (Bn-VAKGL) (Homo sapiens, UniProt P21333); assay: FITC-NLX-based FLNA screening assay (inhibition of FITC-naloxone binding to Bn-VAKGL on streptavidin plates); conditions: 10 nM FITC-NLX
mu opiate receptor (MOR) = assay: MOR agonist activity using [35S]GTPγS binding assay in striatal membranes; assay type: biochemical
Outline: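 Striatal membranes (200 μg) were preincubated 5 min at 30 °C in HEPES pH 7.5 with 100 mM NaCl, 1 mM MgCl2 and 0.5 nM [35S]GTPγS, then 5 min more with 0.1–10 μM compound. Gαo was immunoprecipitated and bound radioactivity counted by scintillation.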

[2] = test system: glioblastoma cells (U-87 MG); assay: [3H]glucose uptake; assay type: cell-based, human; conditions: C0105 0.1-5 nM, other compounds 1 and 5 nM, twice daily for 4 days
Protocol: (§1) FIG. 1A through FIG. 1M illustrate the effects of various FLNA-binding compounds on glucose uptake in glioblastoma, melanoma, breast and pancreatic cancer cell lines, along with appropriate non-cancerous primary cell controls. Cells were grown in the absence or presence of 0.1-5 nM indicated compounds for 4 days. Following brief washes with PBS, cells were serum-deprived for 4 hours and then incubated in oxygenated Kreb's Ringer containing 0.1 μCi [^3H]glucose for 2 hours under constant oxygenation. The reaction was terminated by removal of the incubation medium, and cells were washed and scraped off to determine the amounts of [^3H]glucose in cells by scintillation spectrometry. […] N=5-6. […] . […] . To determine the effect of Compound C0105 on glucose utilization, the cancer and primary normal cells were plated extremely thinly (10%). Once cells attached, Compound C0105 was added at 0.1, 0.5, 1 or 5 nM in the medium twice daily (6 hours apart) for 4 days. The cells were serum-deprived (glucose deprived) for 2 hours. Cells were then rinsed with 1 ml PBS and glucose uptake was assessed by contacting the cells with [^3H]glucose (0.01 uCi/l ml) in Kreb's Ringer for 2 hours. Cells were then rinsed with 1 ml PBS 3 times, scraped off and their glucose content counted by liquid scintillation spectrophotometry.
(§2) Both glioblastoma and melanoma cells were plated extremely thinly. Once cells attached, Compound C0105 was added at 0.1, 0.5, 1 and 5 nM, whereas the other compounds were present at 1 and 5 nM in the medium twice daily (6 hours apart) for 4 days. The cells were serum-deprived (glucose deprived) for 2 hours. Cells were then rinsed with 1 ml PBS and glucose uptake was assessed by contacting the cells with [3H]glucose (0.01 uCi/l ml) of Kreb's Ringer for 2 hours. Cells were then rinsed with 1 ml PBS 3 times, scraped off and their glucose contents counted by liquid scintillation spectrophotometry.

melanoma cells (A2058) = assay: [3H]glucose uptake; assay type: cell-based, human; conditions: C0105 0.1-5 nM, other compounds 1 and 5 nM, twice daily for 4 days
Protocol: as §1, §2

primary lung fibroblasts = assay: [3H]glucose uptake; assay type: cell-based, human; conditions: C0105 0.1-5 nM, other compounds 1 or 5 nM; 4 days
Protocol: as §1, §2

[3] = test system: non-small cell lung cancer cell lines; assay: Glucose utilization; assay type: cell-based, human; conditions: data not shown
Protocol: To determine the effect of Compound C0105 on glucose utilization, the cancer and primary normal cells were plated extremely thinly (10%). Once cells attached, Compound C0105 was added at 0.1, 0.5, 1 or 5 nM in the medium twice daily (6 hours apart) for 4 days. The cells were serum-deprived (glucose deprived) for 2 hours. Cells were then rinsed with 1 ml PBS and glucose uptake was assessed by contacting the cells with [^3H]glucose (0.01 uCi/l ml) in Kreb's Ringer for 2 hours. Cells were then rinsed with 1 ml PBS 3 times, scraped off and their glucose content counted by liquid scintillation spectrophotometry.
. Primary lung fibroblast cells were used as control, non-cancerous cells to illustrate the difference in effects observed (FIG. 1C, FIGS. 1H-1I).

[4] = read-out: Percent Binding Inhibition, FLNA-binding compound 0.01 μM
[5] = read-out: Percent Binding Inhibition, FLNA-binding compound 0.1 μM
[6] = read-out: Percent Binding Inhibition, FLNA-binding compound 1 μM
[7] = Series C-1, 0.1 μM compound, relative to DAMGO
[8] = Series C-1, 0.1 μM compound, [35S]GTPγS binding to Gαo, striatal membranes
[9] = Series C-1, 1 μM compound + 1 μM β-FNA
[10] = Series C-1, 1 μM compound + β-FNA, relative to DAMGO + BFNA
[11] = Series C-1, 1 μM compound, relative to DAMGO
[12] = Series C-1, 1 μM compound, [35S]GTPγS binding to Gαo, striatal membranes

| SMILES | inhibition at 0.01 µM [1, 4] [%] | inhibition at 0.1 µM [1, 5] [%] | inhibition at 1 µM [1, 6] [%] | % DAMGO (0.1 μM) (mu opiate receptor (MOR); [7]) [%] | Concentration of FLNA-Binding Compound as Agonist 0.1 μM (mu opiate receptor (MOR); [8]) [%] | Concentration of FLNA-Binding Compound as Agonist 1 μM + BFNA (mu opiate receptor (MOR); [9]) [%] | % DAMGO + BFNA (mu opiate receptor (MOR); [10]) [%] | % DAMGO (1 μM) (mu opiate receptor (MOR); [11]) [%] | Concentration of FLNA-Binding Compound as Agonist 1 μM (mu opiate receptor (MOR); [12]) [%] | also measured |
| --- | --- | --- | --- | --- | --- | --- | --- | --- | --- | --- |
| COc1ccc(OCC(O)CN2CCc3ccccc3C2)cc1 (stereo not shown) [Compound A0053] | 34.8 | 40 | 46.9 |  |  |  |  |  |  | MOR agonist activity ([35S]GTPγS binding), FLNA-Binding Compound as Agonist 0.1 μM (mu opiate receptor (MOR); 0.1 μM compound): 78.5%; % DAMGO (0.1 μM) (mu opiate receptor (MOR); 0.1 μM compound relative to DAMGO): 46.5%; MOR agonist activity ([35S]GTPγS binding), FLNA-Binding Compound as Agonist 1 μM (mu opiate receptor (MOR); 1 μM compound): 118.2%; MOR agonist activity ([35S]GTPγS binding), FLNA-Binding Compound as Agonist 1 μM + BFNA (mu opiate receptor (MOR); 1 μM compound + 1 μM β-funaltrexamine): 15.1%; % DAMGO + BFNA (mu opiate receptor (MOR); 1 μM compound + BFNA relative to DAMGO + BFNA): 46.2%; % DAMGO (1 μM) (mu opiate receptor (MOR); 1 μM compound relative to DAMGO): 47.5%; Glucose utilization [2]: decreased the elevated glucose utilization; Glucose utilization (melanoma cells (A2058)): decreased the elevated glucose utilization; Glucose uptake / glucose content (primary lung fibroblasts): no significant inhibition in glucose content; Glucose utilization [3]: decreased the elevated glucose utilization |
| O=S(=O)(c1ccc(C(F)(F)F)cc1)N1CCC2(CC1)OCCN2S(=O)(=O)c1ccc(C(F)(F)F)cc1 [Compound C0012] | 26.3 | 39.5 | 46.4 | 54.8 | 96.8 | 184.4 | 280.7 | 86.7 | 224.8 |  |
| COC(=O)c1ccc(S(=O)(=O)N2CCC3(CC2)OCCN3S(=O)(=O)c2ccc(C(=O)OC)cc2)cc1 [Compound C0028] |  |  |  | 55.6 | 93.9 | 78.4 | 472.3 | 60.5 | 132.4 | inhibition at 0.01 µM ([1]; FLNA-binding compound 0.01 μM, read-out: Percent Binding Inhibition): 32.2%; inhibition at 0.1 µM ([1]; FLNA-binding compound 0.1 μM, read-out: Percent Binding Inhibition): 36.6%; inhibition at 1 µM ([1]; FLNA-binding compound 1 μM, read-out: Percent Binding Inhibition): 43.3% |
| CC(=O)c1ccc(S(=O)(=O)N2CC(=O)NC23CCNCC3)cc1 [Compound C0086M] | 37.9 | 48.1 | 53.4 |  |  |  |  |  |  | % DAMGO (0.1 μM) (mu opiate receptor (MOR); Series C-2, 0.1 μM compound, relative to DAMGO): 117.5%; MOR agonist activity, percent [35S]GTPγS binding at the stated compound concentration (mu opiate receptor (MOR); Series C-2, 0.1 μM compound, [35S]GTPγS binding to Gαo, striatal membranes): 206.8%; MOR agonist activity, percent [35S]GTPγS binding at the stated compound concentration (mu opiate receptor (MOR); Series C-2, 1 μM compound + 1 μM β-FNA): 152.3%; % DAMGO + BFNA (mu opiate receptor (MOR); Series C-2, 1 μM compound + β-FNA, relative to DAMGO + BFNA): 692.3%; % DAMGO (1 μM) (mu opiate receptor (MOR); Series C-2, 1 μM compound, relative to DAMGO): 104.9%; MOR agonist activity, percent [35S]GTPγS binding at the stated compound concentration (mu opiate receptor (MOR); Series C-2, 1 μM compound, [35S]GTPγS binding to Gαo, striatal membranes): 265.3% |
| COc1ccc(C(=O)N2CCOC23CCN(S(=O)(=O)c2ccc(OC)cc2)CC3)cc1 [Compound C0019] | 30.1 | 38.2 | 43.6 | 59.1 | 104.4 | 52.8 | 80.4 | 68.1 | 176.6 |  |
